pKd: −log10 of the molar value.
These molecules were tested against WDR5 (Homo sapiens (Human), UniProt P61964) (assay: Surface Plasmon Resonance (SPR) assay, KD and residence time). Conditions: surface plasmon resonance (SPR) assay; read-out: WDR5 binding affinity (KD).
Type: binding

| Molecule | pKd |
| --- | --- |
| Cc1nc(C(=O)Nc2cc(-c3cnc(N4CCOCC4)nc3)c(F)cc2N2CCN(C)C(C)C2)cs1 (stereo in doubt) [Example 194, N-[4-fluoro-5-(2-morpholin-4-ylpyrimidin-5-yl)-2-[(3R)-3,4-dimethylpiperazin-1-yl]phenyl]-2-methyl-1,3-thiazole-4-carboxamide] | 6.95 |
| COc1cc(C(=O)Nc2cc(-c3cnc(N4CCOCC4)nc3)c(F)cc2N2C[C@@H](C)N(C)[C@@H](C)C2)ccc1F [Example 75, 4-fluoro-N-[4-fluoro-5-(2-morpholin-4-ylpyrimidin-5-yl)-2-[(3R,5S)-3,4,5-trimethylpiperazin-1-yl]phenyl]-3-methoxybenzamide] | 7.39 |
| COc1ccc(C(=O)Nc2cc(-c3cnc(N4CCOCC4)nc3)c(F)cc2N2C[C@@H](C)N(C)[C@@H](C)C2)cc1 [Example 106, N-[4-fluoro-5-(2-morpholin-4-ylpyrimidin-5-yl)-2-[(3R,5S)-3,4,5-trimethylpiperazin-1-yl]phenyl]-4-methoxybenzamide] | 5.27 |
| C[C@@H]1CN(c2cc(F)c(C3=CC4CCC(C3)N4)cc2NC(=O)c2c[nH]c(=O)cc2C(F)(F)F)C[C@H](C)N1C (stereo partly drawn) [Example 330, N-[5-(8-azabicyclo[3.2.1]oct-2-en-3-yl)-4-fluoro-2-[(3R,5S)-3,4,5-trimethylpiperazin-1-yl]phenyl]-6-oxo-4-(trifluoromethyl)-1H-pyridine-3-carboxamide] | 8.24 |
| C[C@@H]1CN(c2cc(F)c(C3=CCN(C(=O)C(C)(C)C)CC3)cc2NC(=O)c2c[nH]c(=O)cc2C(F)(F)F)C[C@H](C)N1C [Example 243, N-[5-[1-(2,2-dimethylpropanoyl)-3,6-dihydro-2H-pyridin-4-yl]-4-fluoro-2-[(3R,5S)-3,4,5-trimethylpiperazin-1-yl]phenyl]-6-oxo-4-(trifluoromethyl)-1H-pyridine-3-carboxamide] | 8.67 |
| C[C@@H]1CN(c2cc(F)c(C3=CCCN(C(=O)N(C)C)C3)cc2NC(=O)c2c[nH]c(=O)cc2C(F)(F)F)C[C@H](C)N1C [Example 372, N-[5-[1-(dimethylcarbamoyl)-3,6-dihydro-2H-pyridin-5-yl]-4-fluoro-2-[(3R,5S)-3,4,5-trimethylpiperazin-1-yl]phenyl]-6-oxo-4-(trifluoromethyl)-1H-pyridine-3-carboxamide] | 8.76 |
| C[C@@H]1CN(c2cc(F)c(-c3cnc(N4CCN(C(=O)CCC(=O)O)CC4)nc3)cc2NC(=O)c2c[nH]c(=O)cc2C(F)(F)F)C[C@H](C)N1C [Example 306, 4-[4-[5-[2-fluoro-5-[[6-oxo-4-(trifluoromethyl)-1H-pyridine-3-carbonyl]amino]-4-[(3R,5S)-3,4,5-trimethylpiperazin-1-yl]phenyl]pyrimidin-2-yl]piperazin-1-yl]-4-oxobutanoic acid] | 9.10 |
| C[C@@H]1CN(c2cc(F)c(-c3cnc(N4CCOCC4)nc3)cc2NC(=O)c2cccc(N(C)C)c2)C[C@H](C)N1C [Example 126, 3-(dimethylamino)-N-[4-fluoro-5-(2-morpholin-4-ylpyrimidin-5-yl)-2-[(3R,5S)-3,4,5-trimethylpiperazin-1-yl]phenyl]benzamide] | 5.46 |

The next lines start with the values.

| pKd | Molecule |
| --- | --- |
| 8.85 | Cc1cc(-c2cc(NC(=O)c3c[nH]c(=O)cc3C(F)(F)F)c(N3C[C@@H](C)N(C)[C@@H](C)C3)cc2F)cnc1C#N [Example 132, N-[5-(6-cyano-5-methylpyridin-3-yl)-4-fluoro-2-[(3R,5S)-3,4,5-trimethylpiperazin-1-yl]phenyl]-6-oxo-4-(trifluoromethyl)-1H-pyridine-3-carboxamide] |
| 7.96 | C[C@@H]1CN(c2cc(F)c(-c3cccc(OCC4CC4)c3)cc2NC(=O)c2c[nH]c(=O)cc2C(F)(F)F)C[C@H](C)N1C [Example 125, N-[5-[3-(cyclopropylmethoxy)phenyl]-4-fluoro-2-[(3R,5S)-3,4,5-trimethylpiperazin-1-yl]phenyl]-6-oxo-4-(trifluoromethyl)-1H-pyridine-3-carboxamide] |
| 7.94 | C[C@@H]1CN(c2cc(F)c(-c3cncc(C(N)=O)c3)cc2NC(=O)c2c[nH]c(=O)cc2C(F)(F)F)C[C@H](C)N1C [Example 179, N-[5-(5-carbamoylpyridin-3-yl)-4-fluoro-2-[(3R,5S)-3,4,5-trimethylpiperazin-1-yl]phenyl]-6-oxo-4-(trifluoromethyl)-1H-pyridine-3-carboxamide] |

Same assay, conditions: surface plasmon resonance (SPR); read-out: WDR5 binding affinity (KD)

| Molecule | pKd |
| --- | --- |
| C[C@H]1CN(c2cc(F)c(C3=CCN(C(=O)OC4CC(F)(F)C4)C3)cc2NC(=O)c2c[nH]c(=O)cc2C(F)F)CCN1C [Example 638, 3,3-Difluorocyclobutyl (S)-3-(5-(4-(difluoromethyl)-6-oxo-1,6-dihydropyridine-3-carboxamido)-4-(3,4-dimethylpiperazin-1-yl)-2-fluorophenyl)-2,5-dihydro-1H-pyrrole-1-carboxylate] | 8.64 |
| C[C@@H]1CN(c2ncc(-c3cc(NC(=O)c4cn(C)c(=O)cc4C(F)F)c(N4CCN(C)[C@@H](C)C4)cc3F)cn2)CCO1 (racemic) [Example 460, 4-(difluoromethyl)-N-[4-fluoro-2-[(3S)-3,4-dimethylpiperazin-1-yl]-5-[2-[(2R)-2-methylmorpholin-4-yl]pyrimidin-5-yl]phenyl]-1-methyl-6-oxopyridine-3-carboxamide] | 8.46 |
| N-[5-[1-(2-cyanopyrimidin-4-yl)-3,6-dihydro-2H-pyridin-5-yl]-4-fluoro-2-[(3R)-3,4-dimethylpiperazin-1-yl]phenyl]-4-(difluoromethyl)-6-oxo-1H-pyridine-3-carboxamide [Example 740] | 8.35 |
| C[C@@H]1CN(c2ccc(-c3cc(NC(=O)c4c[nH]c(=O)cc4C(F)F)c(N4CCN(C)[C@@H](C)C4)cc3F)cn2)C[C@H](C)O1 [Example 514, 4-(difluoromethyl)-N-[4-fluoro-5-[6-[(2R,6S)-2,6-dimethylmorpholin-4-yl]pyridin-3-yl]-2-[(3S)-3,4-dimethylpiperazin-1-yl]phenyl]-6-oxo-1H-pyridine-3-carboxamide] | 9.02 |
| C[C@@H]1CN(c2cc(F)c(-c3cnc(N4CCOCC4)s3)cc2NC(=O)c2cn(C)c(=O)cc2C(F)F)C[C@H](C)N1C [Example 623, 4-(difluoromethyl)-N-[4-fluoro-5-(2-morpholin-4-yl-1,3-thiazol-5-yl)-2-[(3R,5S)-3,4,5-trimethylpiperazin-1-yl]phenyl]-1-methyl-6-oxopyridine-3-carboxamide] | 8.25 |
| CC(C)OC(=O)N1CCC=C(c2cc(NC(=O)c3c[nH]c(=O)cc3C(F)F)c(N3CCN(C)C(C)C3)cc2F)C1 (stereo in doubt) [Example 726, propan-2-yl 5-[5-[[4-(difluoromethyl)-6-oxo-1H-pyridine-3-carbonyl]amino]-2-fluoro-4-[(3R)-3,4-dimethylpiperazin-1-yl]phenyl]-3,6-dihydro-2H-pyridine-1-carboxylate] | 8.68 |
| C[C@@H]1CN(c2cc(F)c(-c3ncc(C(=O)N(C)C4CCCCC4)s3)cc2NC(=O)c2c[nH]c(=O)cc2C(F)(F)F)C[C@H](C)N1C [Example 499, N-cyclohexyl-2-[2-fluoro-5-[[6-oxo-4-(trifluoromethyl)-1H-pyridine-3-carbonyl]amino]-4-[(3R,5S)-3,4,5-trimethylpiperazin-1-yl]phenyl]-N-methyl-1,3-thiazole-5-carboxamide] | 8.47 |
| C[C@@H]1CN(c2cc(F)c(-c3cncc(NC(=O)OCc4ccccc4)c3)cc2NC(=O)c2c[nH]c(=O)cc2C(F)(F)F)C[C@H](C)N1C [Example 563, benzyl N-[5-[2-fluoro-5-[[6-oxo-4-(trifluoromethyl)-1H-pyridine-3-carbonyl]amino]-4-[(3R,5S)-3,4,5-trimethylpiperazin-1-yl]phenyl]pyridin-3-yl]carbamate] | 8.48 |

Other lines, results leading:

| pKd | Molecule |
| --- | --- |
| 8.85 | C[C@@H]1CN(c2cc(F)c(-c3cnc(N4CCC(C)(O)CC4)nc3)cc2NC(=O)c2ccc(F)cc2C(F)(F)F)C[C@H](C)N1C [Example 636, 4-Fluoro-N-[4-fluoro-5-[2-(4-hydroxy-4-methylpiperidin-1-yl)pyrimidin-5-yl]-2-[(3R,5S)-3,4,5-trimethylpiperazin-1-yl]phenyl]-2-(trifluoromethyl)benzamide] |
| 7.17 | CC1CN(c2cc(F)c(-c3cc(C(N)=O)c(F)cc3F)cc2NC(=O)c2ccc(F)cc2C(F)(F)F)CCN1C (stereo in doubt) [Example 635, 2,4-difluoro-5-[2-fluoro-5-[[4-fluoro-2-(trifluoromethyl)benzoyl]amino]-4-[(3R)-3,4-dimethylpiperazin-1-yl]phenyl]benzamide] |
| 8.38 | CC1CN(c2cc(F)c(-c3nccc(N4CCOCC4)n3)cc2NC(=O)c2c[nH]c(=O)cc2C(F)(F)F)CCN1C (stereo in doubt) [Example 599, N-[4-fluoro-5-(4-morpholin-4-ylpyrimidin-2-yl)-2-[(3R)-3,4-dimethylpiperazin-1-yl]phenyl]-6-oxo-4-(trifluoromethyl)-1H-pyridine-3-carboxamide] |
| 8.93 | CC1CN(c2cc(F)c(-c3ccc(C(N)=O)c(F)c3)cc2NC(=O)c2c[nH]c(=O)cc2C(F)F)CCN1C (stereo in doubt) [Example 595, N-[5-(4-carbamoyl-3-fluorophenyl)-4-fluoro-2-[(3R)-3,4-dimethylpiperazin-1-yl]phenyl]-4-(difluoromethyl)-6-oxo-1H-pyridine-3-carboxamide] |
| 8.96 | CC1CN(c2cc(F)c(-c3ccnc(N4CCOCC4)n3)cc2NC(=O)c2c[nH]c(=O)cc2C(F)(F)F)CCN1C (stereo in doubt) [Example 718, N-[4-fluoro-5-(2-morpholin-4-ylpyrimidin-4-yl)-2-[(3R)-3,4-dimethylpiperazin-1-yl]phenyl]-6-oxo-4-(trifluoromethyl)-1H-pyridine-3-carboxamide] |
| 8.73 | C[C@@H]1CN(c2cc(F)c(-c3cc(F)c(C(N)=O)c(F)c3)cc2NC(=O)c2c[nH]c(=O)cc2C(F)(F)F)C[C@H](C)N1C [Example 658, N-[5-(4-carbamoyl-3,5-difluorophenyl)-4-fluoro-2-[(3R,5S)-3,4,5-trimethylpiperazin-1-yl]phenyl]-6-oxo-4-(trifluoromethyl)-1H-pyridine-3-carboxamide] |

Reference: patent US11319299B2, “Substituted carboxamides as inhibitors of WDR5 protein-protein binding” (PROPELLON THERAPEUTICS INC., priority 2016, dated 2022)
